Assay results reported in patent publication US20150225454A1, “TETRABRANCHED PEPTIDES AND ANALOGUES AS A NEW CLASS OF ANTIMICROBIALS AND THEIR PREPARATION THEREOF” (priority 2012, published 2015).
pEC50: −log10 of the molar value. Where a SMILES comes first, the peptide text is derived from it. Bridges are numbered along the chain shown (N, C = ends). Roman numbers before positions name the chains, in order.

Test system: IOBA-NHC cells
Format: cell-based, human
Details: 24 h
Procedure: IOBA-NHC cells were cultured under standard conditions (humidified atmosphere of 5% CO2 at 37° C.) in DMEM/F12 supplemented with 1 μg/ml bovine pancreas insulin, 2 ng/ml mouse epidermal growth factor, 0.1 μg/ml cholera toxin, […] hydrocortisone, 10% fetal bovine serum (FBS), 50 UI/ml penicillin, and 50 UI/ml streptomycin. Cells from passages 50-80 were used in all experiments. Every day, normal culture development was observed by phase-contrast microscopy. Cells were removed by gentle trypsin incubation at confluence and counted. They were seeded into 96 well culture plates (Corning, Schiphol-Rijk, The Netherlands) for microtitration analysis of flow cytotoxicity assay (˜10,000 cells/well). Cultures were kept at 37° C. for 24 h. Subconfluent cells (culture surface covering nearly 70%) were then exposed to various peptide concentrations (0.22-225 μM). Cytotoxicity was measured periodically using MultiTox-Fluor Multiplex assay kit (Promega, Wis., USA) by measuring the AFC fluorescence (λex=485 and λem=520 nm).

Row | pEC50 | SMILES
1 | < 3.59 | CC(C)[C@H](NC(=O)[C@H](CCCCN)NC(=O)[C@H](CCCNC(=N)N)NC(=O)CNC(=O)[C@@H](N)CCCNC(=N)N)C(=O)N[C@H](C(=O)N[C@@H](C)C(=O)N[C@@H](C)C(=O)NCCCC[C@H](NC(=O)[C@H](C)NC(=O)[C@H](C)NC(=O)[C@@H](NC(=O)[C@@H](NC(=O)[C@H](CCCCN)NC(=O)[C@H](CCCNC(=N)N)NC(=O)CNC(=O)[C@@H](N)CCCNC(=N)N)C(C)C)C(C)C)C(=O)NCCCC[C@H](NC(=O)[C@H](CCCCNC(=O)[C@H](C)NC(=O)[C@H](C)NC(=O)[C@@H](NC(=O)[C@@H](NC(=O)[C@H](CCCCN)NC(=O)[C@H](CCCNC(=N)N)NC(=O)CNC(=O)[C@@H](N)CCCNC(=N)N)C(C)C)C(C)C)NC(=O)[C@H](C)NC(=O)[C@H](C)NC(=O)[C@@H](NC(=O)[C@@H](NC(=O)[C@H](CCCCN)NC(=O)[C@H](CCCNC(=N)N)NC(=O)CNC(=O)[C@@H](N)CCCNC(=N)N)C(C)C)C(C)C)C(=O)N[C@@H](CCCCN)C(=O)O)C(C)C [[(SEQ ID NO: 11)2K]2KK] (I: H-RGRKVVAAKKK-OH / II: H-RGRKVVAAK / III: H-RGRKVVAA / IV: H-RGRKVVAA; amide I:9-IV:C, I:10-II:C, II:9-III:C; N-terminus and C-terminus assumed)
2 | < 3.60 | C[C@H](NC(=O)CNC(=O)[C@@H](N)CCCNC(=N)N)C(=O)N[C@@H](CCCCN)C(=O)N[C@@H](C)C(=O)N[C@@H](C)C(=O)N[C@@H](CCCNC(=N)N)C(=O)N[C@@H](CCCNC(=N)N)C(=O)NCCCC[C@H](NC(=O)[C@H](CCCNC(=N)N)NC(=O)[C@H](CCCNC(=N)N)NC(=O)[C@H](C)NC(=O)[C@H](C)NC(=O)[C@H](CCCCN)NC(=O)[C@H](C)NC(=O)CNC(=O)[C@@H](N)CCCNC(=N)N)C(=O)NCCCC[C@H](NC(=O)[C@H](CCCCNC(=O)[C@H](CCCNC(=N)N)NC(=O)[C@H](CCCNC(=N)N)NC(=O)[C@H](C)NC(=O)[C@H](C)NC(=O)[C@H](CCCCN)NC(=O)[C@H](C)NC(=O)CNC(=O)[C@@H](N)CCCNC(=N)N)NC(=O)[C@H](CCCNC(=N)N)NC(=O)[C@H](CCCNC(=N)N)NC(=O)[C@H](C)NC(=O)[C@H](C)NC(=O)[C@H](CCCCN)NC(=O)[C@H](C)NC(=O)CNC(=O)[C@@H](N)CCCNC(=N)N)C(=O)N[C@@H](CCCCN)C(=O)O [[(SEQ ID NO: 15)2K]2KK] (I: H-RGAKAARRKKK-OH / II: H-RGAKAARRK / III: H-RGAKAARR / IV: H-RGAKAARR; amide I:9-IV:C, I:10-II:C, II:9-III:C; N-terminus and C-terminus assumed)
3 | 3.77 | C[C@H](NC(=O)[C@H](C)NC(=O)[C@H](CCCNC(=N)N)NC(=O)CNC(=O)[C@@H](N)CCCNC(=N)N)C(=O)N[C@@H](C)C(=O)N[C@@H](CCCNC(=N)N)C(=O)N[C@@H](CCCNC(=N)N)C(=O)NCCCC[C@H](NC(=O)[C@H](CCCNC(=N)N)NC(=O)[C@H](CCCNC(=N)N)NC(=O)[C@H](C)NC(=O)[C@H](C)NC(=O)[C@H](C)NC(=O)[C@H](CCCNC(=N)N)NC(=O)CNC(=O)[C@@H](N)CCCNC(=N)N)C(=O)NCCCC[C@H](NC(=O)[C@H](CCCCNC(=O)[C@H](CCCNC(=N)N)NC(=O)[C@H](CCCNC(=N)N)NC(=O)[C@H](C)NC(=O)[C@H](C)NC(=O)[C@H](C)NC(=O)[C@H](CCCNC(=N)N)NC(=O)CNC(=O)[C@@H](N)CCCNC(=N)N)NC(=O)[C@H](CCCNC(=N)N)NC(=O)[C@H](CCCNC(=N)N)NC(=O)[C@H](C)NC(=O)[C@H](C)NC(=O)[C@H](C)NC(=O)[C@H](CCCNC(=N)N)NC(=O)CNC(=O)[C@@H](N)CCCNC(=N)N)C(=O)N[C@@H](CCCCN)C(=O)O [[(SEQ ID NO: 16)2K]2KK] (I: H-RGRAAARRKKK-OH / II: H-RGRAAARRK / III: H-RGRAAARR / IV: H-RGRAAARR; amide I:9-IV:C, I:10-II:C, II:9-III:C; N-terminus and C-terminus assumed)
4 | 3.96 | CC(C)[C@H](NC(=O)[C@H](CCCCN)NC(=O)[C@H](CCCNC(=N)N)NC(=O)[C@H](C)NC(=O)[C@@H](N)CCCNC(=N)N)C(=O)N[C@H](C(=O)N[C@@H](CCCNC(=N)N)C(=O)N[C@@H](CCCNC(=N)N)C(=O)NCCCC[C@H](NC(=O)[C@H](CCCNC(=N)N)NC(=O)[C@H](CCCNC(=N)N)NC(=O)[C@@H](NC(=O)[C@@H](NC(=O)[C@H](CCCCN)NC(=O)[C@H](CCCNC(=N)N)NC(=O)[C@H](C)NC(=O)[C@@H](N)CCCNC(=N)N)C(C)C)C(C)C)C(=O)NCCCC[C@H](NC(=O)[C@H](CCCCNC(=O)[C@H](CCCNC(=N)N)NC(=O)[C@H](CCCNC(=N)N)NC(=O)[C@@H](NC(=O)[C@@H](NC(=O)[C@H](CCCCN)NC(=O)[C@H](CCCNC(=N)N)NC(=O)[C@H](C)NC(=O)[C@@H](N)CCCNC(=N)N)C(C)C)C(C)C)NC(=O)[C@H](CCCNC(=N)N)NC(=O)[C@H](CCCNC(=N)N)NC(=O)[C@@H](NC(=O)[C@@H](NC(=O)[C@H](CCCCN)NC(=O)[C@H](CCCNC(=N)N)NC(=O)[C@H](C)NC(=O)[C@@H](N)CCCNC(=N)N)C(C)C)C(C)C)C(=O)N[C@@H](CCCCN)C(=O)O)C(C)C [Peptide B4010-G2A] (I: H-RARKVVRRKKK-OH / II: H-RARKVVRRK / III: H-RARKVVRR / IV: H-RARKVVRR; amide I:9-IV:C, I:10-II:C, II:9-III:C)
5 | < 3.56 | C[C@H](NC(=O)[C@H](C)NC(=O)[C@H](C)NC(=O)[C@H](C)NC(=O)[C@H](CCCCN)NC(=O)[C@H](CCCNC(=N)N)NC(=O)CNC(=O)[C@@H](N)CCCNC(=N)N)C(=O)NCCCC[C@H](NC(=O)[C@H](C)NC(=O)[C@H](C)NC(=O)[C@H](C)NC(=O)[C@H](C)NC(=O)[C@H](CCCCN)NC(=O)[C@H](CCCNC(=N)N)NC(=O)CNC(=O)[C@@H](N)CCCNC(=N)N)C(=O)NCCCC[C@H](NC(=O)[C@H](CCCCNC(=O)[C@H](C)NC(=O)[C@H](C)NC(=O)[C@H](C)NC(=O)[C@H](C)NC(=O)[C@H](CCCCN)NC(=O)[C@H](CCCNC(=N)N)NC(=O)CNC(=O)[C@@H](N)CCCNC(=N)N)NC(=O)[C@H](C)NC(=O)[C@H](C)NC(=O)[C@H](C)NC(=O)[C@H](C)NC(=O)[C@H](CCCCN)NC(=O)[C@H](CCCNC(=N)N)NC(=O)CNC(=O)[C@@H](N)CCCNC(=N)N)C(=O)N[C@@H](CCCCN)C(=O)O [[(SEQ ID NO: 18)2K]2KK] (I: H-RGRKAAAAKKK-OH / II: H-RGRKAAAAK / III: H-RGRKAAAA / IV: H-RGRKAAAA; amide I:9-IV:C, I:10-II:C, II:9-III:C; N-terminus and C-terminus assumed)
